Measured values taken from the NIST ThermoML archive (doi:10.1021/je201211f).

Experiments:
[1] = 298.15 K, 101.33 kPa, Liquid; for viscosity: Capillary tube (Ostwald / Ubbelohde) method; for mass density: Vibrating tube method
[2] = refractive index (Na D-line) (dimensionless); details: 298.15 K; 101.33 kPa; Liquid; Standard Abbe refractometry
[3] = refractive index (Na D-line) (dimensionless); xn = mol fraction of the nth substance listed; details: 298.15 K, 101 kPa, Liquid
[4] = xn = mol fraction of the nth substance listed; details: 101 kPa, Liquid; for mass density: Vibrating tube method; for viscosity: Capillary tube (Ostwald / Ubbelohde) method

CC(=O)O [acetic acid]
Details | mass density [kg/m3] | refractive index | viscosity [mPa·s]
[1] | 1043.58 | – | 1.127
[2] | – | 1.3698 | –

ClC=C(Cl)Cl [trichloroethene]
Details | mass density [kg/m3] | refractive index | viscosity [mPa·s]
[1] | 1455.53 | – | 0.582
[2] | – | 1.475 | –

ClC=C(Cl)Cl [trichloroethene] + Cc1ccc(C)cc1
Details | mass density [kg/m3] | refractive index | viscosity [mPa·s]
[3], Standard Abbe refractometry, x1 = 0.0897 | – | 1.4921 | –
[3], Standard Abbe refractometry, x1 = 0.154 | – | 1.4911 | –
[3], Standard Abbe refractometry, x1 = 0.2402 | – | 1.4897 | –
[3], Standard Abbe refractometry, x1 = 0.318 | – | 1.4885 | –
[3], Standard Abbe refractometry, x1 = 0.399 | – | 1.4873 | –
[3], Standard Abbe refractometry, x1 = 0.4801 | – | 1.486 | –
[3], Standard Abbe refractometry, x1 = 0.5624 | – | 1.4844 | –
[3], Standard Abbe refractometry, x1 = 0.64 | – | 1.4829 | –
[3], Standard Abbe refractometry, x1 = 0.721 | – | 1.4811 | –
[3], Standard Abbe refractometry, x1 = 0.7988 | – | 1.4794 | –
[3], Standard Abbe refractometry, x1 = 0.8834 | – | 1.4775 | –
[3], Standard Abbe refractometry, x1 = 0.961 | – | 1.4753 | –
[4], 293.15 K, x1 = 0.0843 | 899.17 | – | –
[4], 293.15 K, x1 = 0.1806 | 944.97 | – | –
[4], 293.15 K, x1 = 0.2528 | 980.96 | – | –
[4], 293.15 K, x1 = 0.3239 | 1017.91 | – | –
[4], 293.15 K, x1 = 0.403 | 1060.83 | – | –
[4], 293.15 K, x1 = 0.49 | 1110.44 | – | –
[4], 293.15 K, x1 = 0.5689 | 1157.79 | – | –
[4], 293.15 K, x1 = 0.6381 | 1201.31 | – | –
[4], 293.15 K, x1 = 0.7202 | 1255.5 | – | –
[4], 293.15 K, x1 = 0.7975 | 1309.15 | – | –
[4], 293.15 K, x1 = 0.8925 | 1379.16 | – | –
[4], 293.15 K, x1 = 0.9582 | 1430.28 | – | –
[4], 298.15 K, x1 = 0.0843 | 894.6 | – | –
[4], 298.15 K, x1 = 0.0897 | – | – | 0.6075
[4], 298.15 K, x1 = 0.154 | – | – | 0.606
[4], 298.15 K, x1 = 0.1806 | 940.12 | – | –
[4], 298.15 K, x1 = 0.2402 | – | – | 0.6043
[4], 298.15 K, x1 = 0.2528 | 975.88 | – | –
[4], 298.15 K, x1 = 0.318 | – | – | 0.6026
[4], 298.15 K, x1 = 0.3239 | 1012.59 | – | –
[4], 298.15 K, x1 = 0.399 | – | – | 0.5999
[4], 298.15 K, x1 = 0.403 | 1055.25 | – | –
[4], 298.15 K, x1 = 0.4801 | – | – | 0.5968
[4], 298.15 K, x1 = 0.49 | 1104.53 | – | –
[4], 298.15 K, x1 = 0.5624 | – | – | 0.594
[4], 298.15 K, x1 = 0.5689 | 1151.57 | – | –
[4], 298.15 K, x1 = 0.6381 | 1194.8 | – | –
[4], 298.15 K, x1 = 0.64 | – | – | 0.5915
[4], 298.15 K, x1 = 0.718 | – | – | 0.5888
[4], 298.15 K, x1 = 0.7202 | 1248.62 | – | –
[4], 298.15 K, x1 = 0.7975 | 1301.88 | – | –
[4], 298.15 K, x1 = 0.8 | – | – | 0.5861
[4], 298.15 K, x1 = 0.8834 | – | – | 0.5834
[4], 298.15 K, x1 = 0.8925 | 1371.4 | – | –
[4], 298.15 K, x1 = 0.9582 | 1422.14 | – | –
[4], 298.15 K, x1 = 0.9632 | – | – | 0.5808
[4], 303.15 K, x1 = 0.0843 | 890.02 | – | –
[4], 303.15 K, x1 = 0.1806 | 935.27 | – | –
[4], 303.15 K, x1 = 0.2528 | 970.8 | – | –
[4], 303.15 K, x1 = 0.3239 | 1007.28 | – | –
[4], 303.15 K, x1 = 0.403 | 1049.65 | – | –
[4], 303.15 K, x1 = 0.49 | 1098.61 | – | –
[4], 303.15 K, x1 = 0.5689 | 1145.35 | – | –
[4], 303.15 K, x1 = 0.6381 | 1188.25 | – | –
[4], 303.15 K, x1 = 0.7202 | 1241.69 | – | –
[4], 303.15 K, x1 = 0.7975 | 1294.56 | – | –
[4], 303.15 K, x1 = 0.8925 | 1363.59 | – | –
[4], 303.15 K, x1 = 0.9582 | 1413.95 | – | –

ClC=C(Cl)Cl [trichloroethene] + Cc1cccc(C)c1
[3]
Details | refractive index
x1 = 0.085 | 1.4932
x1 = 0.1622 | 1.4922
x1 = 0.2415 | 1.4908
x1 = 0.3204 | 1.4894
x1 = 0.3935 | 1.488
x1 = 0.496 | 1.4859
x1 = 0.5613 | 1.4845
x1 = 0.6429 | 1.4825
x1 = 0.7226 | 1.4807
x1 = 0.8061 | 1.4789
x1 = 0.8832 | 1.4773
x1 = 0.9596 | 1.4756

[4]
Details | mass density, 293.15 K [kg/m3] | mass density, 298.15 K [kg/m3] | mass density, 303.15 K [kg/m3] | viscosity, 298.15 K [mPa·s]
x1 = 0.0494 | 886.2 | 881.77 | 877.34 | –
x1 = 0.0768 | – | – | – | 0.5895
x1 = 0.0796 | 899.93 | 895.43 | 890.91 | –
x1 = 0.1465 | – | – | – | 0.5893
x1 = 0.1531 | 934.34 | 929.62 | 924.88 | –
x1 = 0.23 | 971.87 | 966.92 | 961.95 | –
x1 = 0.2415 | – | – | – | 0.5895
x1 = 0.3097 | 1012.52 | 1007.32 | 1002.09 | –
x1 = 0.3204 | – | – | – | 0.5897
x1 = 0.3935 | – | – | – | 0.5893
x1 = 0.4065 | 1064.66 | 1059.1 | 1053.53 | –
x1 = 0.4841 | 1108.6 | 1102.78 | 1096.93 | –
x1 = 0.496 | – | – | – | 0.5883
x1 = 0.5561 | 1151.33 | 1145.2 | 1139.05 | –
x1 = 0.5613 | – | – | – | 0.5875
x1 = 0.6423 | – | – | – | 0.5863
x1 = 0.6453 | 1206.86 | 1200.35 | 1193.84 | –
x1 = 0.709 | 1248.6 | 1241.79 | 1234.95 | –
x1 = 0.7204 | – | – | – | 0.5851
x1 = 0.7639 | – | – | – | 0.5844
x1 = 0.7989 | 1310.61 | 1303.35 | 1296.06 | –
x1 = 0.8774 | – | – | – | 0.5823
x1 = 0.8937 | 1380.16 | 1372.41 | 1364.61 | –
x1 = 0.9596 | – | – | – | 0.5808
x1 = 0.974 | 1442.88 | 1434.66 | 1426.38 | –

ClC=C(Cl)Cl [trichloroethene] + Cc1ccccc1C
[3]
Details | refractive index
x1 = 0.0721 | 1.501
x1 = 0.1615 | 1.499
x1 = 0.2437 | 1.4973
x1 = 0.3075 | 1.4958
x1 = 0.3957 | 1.4936
x1 = 0.4824 | 1.4917
x1 = 0.5643 | 1.4896
x1 = 0.6346 | 1.4875
x1 = 0.7158 | 1.4847
x1 = 0.806 | 1.4813
x1 = 0.8818 | 1.4788
x1 = 0.9637 | 1.4762

[4]
Details | mass density, 293.15 K [kg/m3] | mass density, 298.15 K [kg/m3] | mass density, 303.15 K [kg/m3] | viscosity, 298.15 K [mPa·s]
x1 = 0.0721 | – | – | – | 0.7421
x1 = 0.088 | 919.03 | 914.58 | 910.12 | –
x1 = 0.1511 | 948.33 | 943.7 | 939.06 | –
x1 = 0.1615 | – | – | – | 0.725
x1 = 0.2426 | 992.67 | 987.75 | 982.82 | –
x1 = 0.2437 | – | – | – | 0.7095
x1 = 0.3181 | – | – | – | 0.6959
x1 = 0.3249 | 1034.35 | 1029.15 | 1023.95 | –
x1 = 0.3895 | 1068.4 | 1062.98 | 1057.54 | –
x1 = 0.3957 | – | – | – | 0.6808
x1 = 0.4775 | 1116.88 | 1111.15 | 1105.38 | –
x1 = 0.4824 | – | – | – | 0.6644
x1 = 0.5495 | 1158.43 | 1152.41 | 1146.34 | –
x1 = 0.558 | – | – | – | 0.6498
x1 = 0.6346 | – | – | – | 0.6363
x1 = 0.6384 | 1212.22 | 1205.79 | 1199.32 | –
x1 = 0.7132 | 1259.66 | 1252.89 | 1246.08 | –
x1 = 0.7158 | – | – | – | 0.6224
x1 = 0.79 | 1310.86 | 1303.68 | 1296.47 | –
x1 = 0.802 | – | – | – | 0.6081
x1 = 0.8776 | 1372.25 | 1364.6 | 1356.92 | –
x1 = 0.8818 | – | – | – | 0.595
x1 = 0.9559 | – | – | – | 0.5836
x1 = 0.9583 | 1431.95 | 1423.79 | 1415.62 | –
